Experimental data reported in patent US9718781B2, “Methods and compounds for treating proliferative disorders and viral infections” (University College Dublin, National University of Ireland, …, priority 2012, dated 2017).
Several values for one entry are separate records, joined by “and”; a condition that tells them apart may be missing. Identical values can stand only once.

Assays:
[1] = test system: MDA-MB-231-D3H2LN-Luc cells; assay: Spontaneous/orthotopic breast cancer model, mammary fat pad injection; format: in vivo; settings: for First Appearance of Mets, Mean ± S.E.M.: lymph node metastases; for Day of Sacrifice Mean ± S.E.M.: primary tumor reaching 15 mm
Text: In order to further assess the efficacy of TP20 for use as an anti-cancer, affecting primary tumor growth, and/or as an anti-metastatic agent, a spontaneous/orthotopic cancer model was employed by injection of the triple negative MDA-MB-231 breast cancer cell line (ER, PR, Her2 negative) into the mammary fat pad of immune compromised Balb-C nude mice. More specifically, in order to increase the growth rate of the primary tumor and increase the incidence of metastasis, a more aggressive variant of the MDA-MB-231 cell line, namely MDA-MB-231-D3H2LN-Luc (Jenkins et al., (2005), Breast Cancer Res, 7, 444-454), was used in the studies described below. Furthermore, the latter MDA-MB-231-D3H2LN-Luc cell line stably over-expresses the firefly luciferase gene (Luc) thereby enabling monitoring and in vivo detection of both the primary tumor and of the secondary metastasis by bioluminescent imaging in addition to assessment of the growth of the primary tumor by standard caliper measurements. In total, three groups of animals were studied and the diagram below gives an overview of the study design. FIG. 7 provides a diagram of a study design.
Body weights of the BALB/c nude mice were recorded prior to initiating the study and, thereafter, 3 times per week (Monday, Wednesday & Friday) following the mammary fat pad injection up to the point of sacrifice or death of the animal, as per welfare guidelines. Animals were typically sacrificed once the primary tumor reached 15 mm or, as required, if animals needed to be culled for welfare reasons.
BALB/C-nude mice (female, 5-7 weeks old) were pre-treated 24 and 4 hr with TP20 at 0.36 mg/kg (blue line; Group 1), 1 mg/kg (red line; Group 2) or as control, vehicle (1% DMSO in PBS; black line; Group 3) prior to injecting MDA-MB-231-D3H2LN-Luc cells (50 μl, 2×106 suspended in 50% DPBS/50% Matrigel) into the mammary fat pad with a 27.5 G needle. Thereafter, mice were treated with TP20 or vehicle thrice weekly (Monday, Wednesday & Friday) until the primary tumor width reached 15 mm. Body weight was monitored 3 times per week. The data presented represents the mean (FIG. 8A; ±S.E.M.) or Percentage in Body Weight (FIG. 8B; ±S.E.M.), where weight at day −1 is 100%.
Through the duration of the study to monitor the growth of the primary (1°) tumor, for welfare and experimental reasons, caliper measurements were performed thrice weekly (i.e., Monday, Wednesday & Friday) and involved measuring the width and length of the primary tumor mass. These measurements were then used in the following formula to calculate the tumor volume (mm3): Volume of Tumor (mm3)=length×width2×0.5
BALB/C-nude mice (female, 5-7 weeks old) were pre-treated 24 and 4 hr with TP20 at 0.36 mg/kg (blue line; Group 1), 1 mg/kg (red line; Group 2) or as control, vehicle (1% DMSO; black line; Group 3) prior to injecting MDA-MB-231-D3H2LN-Luc cells (50 μl, 2×106 suspended in 50% DPBS/50% Matrigel) into the mammary fat pad with a 27.5 G needle. Thereafter, mice were treated with TP20 or vehicle thrice weekly (Monday, Wednesday & Friday) until the primary tumor diameter reached 15 mm. Primary tumor growth was monitored thrice weekly using caliper measurements where tumor volume (mm3) is calculated by the formula Volume=Length×width2×0.5. The data presented represents the mean (±S.E.M.) tumor volume (mm3) for each of the treatment groups as a function of time (days). Fine black lines represent the linear trend for each of the treatment groups.
As the 1° tumors reached 15 mm in diameter, for welfare reasons the animals were sacrificed. The day of sacrifice was analyzed using Kaplan-Meier survival analysis and subsequent Log-Rank and Wilcoxon tests to compare any differences between the treatments groups in terms of time of death. […]

[2] = test system: human platelets; assay: ADP-induced platelet aggregation of human platelets ex vivo; format: cell-based
Text: (§1) The method of assessing platelet aggregation also allows evaluation of the effect of the compounds of the invention on platelet aggregation upon stimulation by other agonists, e.g., adenosine diphosphate (ADP) and thrombin.

[3] = Phase 1 safety/tolerability study, repeat oral dosing; settings: 360 μg/kg oral gavage twice daily
Text: Data is presented as mean body weight (±S.E.M.; FIG. 12A) or as mean percentage change in body weight (±S.E.M.; FIG. 12B) as a function of time.

[4] = test system: MDA-MB-231-2003 breast cancer cells; assay: Experimental metastasis breast tumor xenograft model in SCID mice; format: in vivo; settings: 360 μg/kg i.p. 24 hr and 4 hr before tumor cell injection
Method: An anticancer agent including a compound represented by formula X (hereinafter “X”) was evaluated for the ability to inhibit tumor growth and experimental metastasis in a breast tumor xenograft model in immunocompromised (SCID) mice.
MDA-MB-231-2003 breast cancer cells (1×10^6 in 0.1 ml PBS) were injected into the lateral tail vein of female SCID mice and the ability of X to inhibit metastasis to the lung was investigated (n=5 for the test X treated-mice or n=4 for the control PBS-treated mice). Mice were initially treated via intraperitoneal (i.p.) injection with either X (360 μg/kg; ˜5 μM final concentration in blood; the “test” mice) or with PBS (the “control” mice) some 24 hr. before tumor cell injection. A second injection (i.p.) was given at the same dosage of X (360 μg/kg) at 4 hr. before tumor cell injection to the test mice while the control mice received an equivalent volume of PBS before tumor cell injection. […] Thereafter, all mice were monitored by image analysis (IVIS® imaging system) every two weeks for tumor cells in their lungs and were sacrificed at day 28 post tumor cell injection.

[5] = test system: human platelets; assay: Thrombin-induced platelet aggregation of human platelets ex vivo; format: cell-based
Text: as §1

[6] = test system: A/Puerto Rico/8/1934 (H1N1) influenza A virus; format: in vivo, BALB/c mice
[7] = lung, Day 4, Tamiflu 10 mg/kg, TP20 0.36 mg/kg
[8] = lung, Day 4, number of animals of 3

For `COc1ccc(-c2cccc(Oc3ccc([N+](=O)[O-])cc3S(=O)(=O)NC(=O)NC(C)(C)C)c2)cc1` [TP20, N-(tert-butylcarbamoyl)-2-((4′-methoxy-[1,1′-biphenyl]-3-yl)oxy)-5-nitrobenzene-sulfonamide], the “effect on primary tumor growth” value ([1]; 0.36 mg/kg and 1 mg/kg vs. vehicle) was “significantly decreases the primary tumor growth”, the “tolerability of repeat administration (body weight)” value ([1]; 0.36 mg/kg and 1 mg/kg, thrice weekly) was “well-tolerated” and the “First Appearance of Mets, Mean ± S.E.M.” value ([1]; Group 1, 0.36 mg/kg) was 22.5 ± 2.16 (N = 8) days. The “Day of Sacrifice Mean ± S.E.M.” value ([1]; Group 1, 0.36 mg/kg) was 38.5 ± 2.83 (N = 8) days, the “First Appearance of Mets, Mean ± S.E.M.” value ([1]; Group 2, 1 mg/kg) was 26.2 ± 3.71 (N = 9) days and the “Day of Sacrifice Mean ± S.E.M.” value ([1]; Group 2, 1 mg/kg) was 38.4 ± 3.86 (N = 7) days. For the same compound, the “effect on ADP-induced platelet aggregation” value [2] was “did not affect”, the tolerability [3] was “well tolerated with no safety issues/concerns” and the “survival on repeat dosing” value ([3]; 14 days monitoring) was “All mice survived”. For the same compound, the weight loss ([3]; at Day 7) was about 4%, the lung tumor development ([4]; day 28) was “did not develop any tumors” and the “mice surviving to the end of the experiment (day 28)” value ([4]; n=5) was 5. The “effect on thrombin-induced platelet aggregation” value [5] was “did not affect”, the “mean time of death post-viral challenge” value ([6]; TP20 360 μg/kg oral gavage twice daily) was 7.2 days and the “loss of body weight post-viral infection” value ([6]; Tamiflu 10 mg/kg, TP20 360 μg/kg, oral gavage twice daily) was at most 30%. The “Alveolar Acute Inflammation, number of animals with the finding” value ([6]; lung, Day 4, 3 animals) was “(0)”, the “Bronchiolar Erosion, number of animals with the finding” value ([6]; lung, Day 4, 3 animals) was “(3)” and the “Bronchiolar Exudate, number of animals with the finding” value ([6]; lung, Day 4, 3 animals) was “(3)”. For the same compound, the “Bronchiolar acute Inflammation, number of animals with the finding” value ([6]; lung, Day 4, 3 animals) was “(3)”, the “Vascular Necrosis, number of animals with the finding” value ([6]; lung, Day 4, 3 animals) was “(0)” and the “Extent of Perivascular Edema (Mean ± S.E.M.), Per Animal” value [6, 7] was 16.9 ± 1.09 (70) arbitrary units and 17.4 ± 0.98 (89) arbitrary units and 19.2 ± 1.10 (78) arbitrary units. For the same compound, the “Extent of Perivascular Edema (Mean ± S.E.M.), Per Treatment Group” value [6, 7] was 18.0 ± 0.59 arbitrary units, the “reduction in the perivascular edema compared to vehicle” value [6, 7] was “approx. 20%” and the “Bronchiolar Erosion, Mild” value [6, 8] was 3. For the same compound, the “Bronchiolar Erosion, Minimal” value [6, 8] was 0, the “Bronchiolar Erosion, Moderate” value [6, 8] was 0 and the “Bronchiolar Exudate, Mild” value [6, 8] was 1. The “Bronchiolar Exudate, Minimal” value [6, 8] was 2, the “Bronchiolar Exudate, Moderate” value [6, 8] was 0 and the “Bronchiolar acute Inflammation, Mild” value [6, 8] was 0. For the same compound, the “Bronchiolar acute Inflammation, Minimal” value [6, 8] was 3, the “Perivascular Edema, Mild” value [6, 8] was 0 and the “Perivascular Edema, Minimal” value [6, 8] was 3. For the same compound, the “Perivascular Edema, number of animals with the finding” value ([6]; mouse, in vivo) was “(3)”.
